One experiment has as its target T1, hA2AAR (Homo sapiens, UniProt P29274).
T1 construct: expressed in transfected cells
As to conditions: values from the literature (footnotes c, d); read-out: Affinity (Ki, nM) hA2A; cited from earlier work.

For the next experiment, the target named is T2, human A3AR (Homo sapiens, UniProt P0DMS8).
T2 construct: expressed in transfected cells; host or cells: CHO
T2 sequence (P0DMS8 1-318): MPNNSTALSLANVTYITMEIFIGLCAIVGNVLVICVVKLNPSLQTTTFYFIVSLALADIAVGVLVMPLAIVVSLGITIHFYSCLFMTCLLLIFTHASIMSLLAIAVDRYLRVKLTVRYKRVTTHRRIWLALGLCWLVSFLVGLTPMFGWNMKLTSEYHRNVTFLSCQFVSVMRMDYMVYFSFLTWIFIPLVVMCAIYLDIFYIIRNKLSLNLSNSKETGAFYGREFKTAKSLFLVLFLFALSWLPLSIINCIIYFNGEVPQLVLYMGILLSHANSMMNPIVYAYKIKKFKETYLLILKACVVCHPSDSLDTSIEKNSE
Description: Inhibition of forskolin-stimulated cyclic AMP production in AR transfected CHO cells (Table 1). The format is cell-based. Particulars: at 10 μM, in comparison to maximal effect of full agonist 5′-N-ethylcarboxamidoadenosine at 100%.

The target of experiment [1] is T3, human A2A adenosine receptor (Homo sapiens, UniProt P29274). As to the kind of experiment: Radioligand binding, human A2A AR (Table 1). As to conditions: read-out: A2A Ki; species H (human).
Another experiment addresses T4, hA1AR (Homo sapiens, UniProt P30542).
T4 construct: expressed in transfected cells; host or cells: CHO
T4 sequence (P30542 1-326): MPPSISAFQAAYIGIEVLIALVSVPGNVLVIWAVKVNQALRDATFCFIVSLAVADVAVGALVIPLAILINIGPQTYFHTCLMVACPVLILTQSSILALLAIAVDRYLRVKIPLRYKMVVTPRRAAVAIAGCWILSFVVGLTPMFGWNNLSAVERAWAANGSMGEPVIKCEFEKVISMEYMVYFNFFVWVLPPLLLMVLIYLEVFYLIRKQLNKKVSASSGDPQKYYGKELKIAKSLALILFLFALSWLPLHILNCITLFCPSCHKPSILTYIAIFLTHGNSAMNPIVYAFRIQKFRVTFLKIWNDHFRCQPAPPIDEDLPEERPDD
Particulars: values from the literature (footnotes c, d); read-out: Affinity (Ki, nM) hA1; cited from earlier work.

The target of experiment [2] is T5, human A3 adenosine receptor (Homo sapiens, UniProt P0DMS8).
T5 sequence (P0DMS8 1-318): T2 sequence (P0DMS8 1-318)
Description: [125I]I-AB-MECA binding, human A3 AR, CHO membranes (Table 1).

The target in experiment [3] is T6, hA3AR (Homo sapiens, UniProt P0DMS8).
T6 construct: expressed in transfected cells; host or cells: CHO
T6 sequence (P0DMS8 1-318): T2 sequence (P0DMS8 1-318)
As to conditions: at 10 μM vs maximal effect of 51 (= 100%); values from the literature; cited from earlier work.

Experiment [4] addresses T6, hA3AR. As to conditions: values from the literature (footnotes c, d); read-out: Affinity (Ki, nM) hA3; cited from earlier work.
The target of experiment [5] is T7, human A1 adenosine receptor (Homo sapiens, UniProt P30542).
T7 sequence (P30542 1-326): T4 sequence (P30542 1-326)
Description: Radioligand binding, human A1 AR, CHO membranes (Table 1). As to conditions: read-out: A1 Ki; species H (human).

The target in experiment [6] is T8, mouse A1 adenosine receptor (Mus musculus, UniProt Q60612).
T8 sequence (Q60612 1-326): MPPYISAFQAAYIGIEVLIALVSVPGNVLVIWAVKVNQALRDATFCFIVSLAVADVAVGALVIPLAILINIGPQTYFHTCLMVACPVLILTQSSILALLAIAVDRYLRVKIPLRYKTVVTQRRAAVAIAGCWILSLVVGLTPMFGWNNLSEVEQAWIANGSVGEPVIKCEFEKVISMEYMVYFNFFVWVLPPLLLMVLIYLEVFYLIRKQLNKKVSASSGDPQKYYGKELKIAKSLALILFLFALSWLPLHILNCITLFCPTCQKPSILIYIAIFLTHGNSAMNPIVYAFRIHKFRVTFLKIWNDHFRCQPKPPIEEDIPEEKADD
As to the kind of experiment: Competition radioligand binding, mouse A1 AR, HEK293 membranes (Table 1). Particulars: read-out: A1 Ki; species M (mouse); [125I]I-AB-MECA; mean ± SEM.

For another experiment, the target named is T9, mA3AR (Mus musculus, UniProt Q61618).
T9 construct: expressed in transfected cells
T9 sequence (Q61618 1-319): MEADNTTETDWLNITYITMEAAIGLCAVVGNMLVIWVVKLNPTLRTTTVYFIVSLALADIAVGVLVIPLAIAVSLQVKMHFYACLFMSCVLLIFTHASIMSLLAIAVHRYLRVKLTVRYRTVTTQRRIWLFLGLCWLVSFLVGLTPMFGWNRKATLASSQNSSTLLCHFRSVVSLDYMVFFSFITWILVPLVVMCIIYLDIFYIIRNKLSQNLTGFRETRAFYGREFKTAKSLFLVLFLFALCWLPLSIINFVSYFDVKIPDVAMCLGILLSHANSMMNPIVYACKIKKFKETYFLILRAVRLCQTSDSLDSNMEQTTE
As to conditions: values from Melman et al.; read-out: Affinity (Ki, nM) mA3; cited from earlier work.

Another experiment concerns the target T10, mA1AR (Mus musculus, UniProt Q60612).
T10 construct: expressed in transfected cells
T10 sequence (Q60612 1-326): T8 sequence (Q60612 1-326)
Particulars: values from Melman et al.; read-out: Affinity (Ki, nM) mA1; cited from earlier work.

Another experiment addresses T11, rat A1 AR (Rattus norvegicus, UniProt P25099).
T11 sequence (P25099 1-326): T8 sequence (Q60612 1-326) with E151V, A155D, I157R, E316D, I319L, D325E
Particulars: species R (rat); data from Lee et al.; cited from earlier work.

The next experiment addresses T12, mA2AAR (Mus musculus, UniProt Q60613).
T12 construct: expressed in transfected cells
Particulars: values from Melman et al.; read-out: Affinity (Ki, nM) mA2A; cited from earlier work.

In experiment [7] the target is mouse A2A adenosine receptor (Mus musculus, UniProt Q60613). Description: Competition radioligand binding, mouse A2A AR, HEK293 membranes (Table 1). As to conditions: read-out: A2A Ki; species M (mouse); [3H]CGS21680.
The target of experiment [8] is T13, rat A3 AR (Rattus norvegicus, UniProt P28647).
T13 sequence (P28647 1-320): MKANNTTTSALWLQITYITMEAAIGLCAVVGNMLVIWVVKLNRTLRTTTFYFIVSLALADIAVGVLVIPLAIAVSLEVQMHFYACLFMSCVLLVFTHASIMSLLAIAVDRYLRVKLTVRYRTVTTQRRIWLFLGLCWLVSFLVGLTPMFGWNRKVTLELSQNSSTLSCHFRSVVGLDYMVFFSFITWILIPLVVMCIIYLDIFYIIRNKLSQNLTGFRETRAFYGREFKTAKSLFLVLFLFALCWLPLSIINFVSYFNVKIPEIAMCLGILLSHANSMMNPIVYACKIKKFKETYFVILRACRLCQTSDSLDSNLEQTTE
As to the kind of experiment: Radioligand binding, rat A3 AR (Table 1). As to conditions: species R (rat).

Experiment [9] deals with T14, mouse A3 adenosine receptor (Mus musculus, UniProt Q61618).
T14 sequence (Q61618 1-319): T9 sequence (Q61618 1-319)
Description: Competition radioligand binding, mouse A3 AR, HEK293 membranes (Table 1). As to conditions: for Ki: read-out: A3 Ki, species M (mouse), [125I]I-AB-MECA; for Selectivity A1/A3: mouse.

Another experiment addresses rat A2A AR (Rattus norvegicus, UniProt P30543). Particulars: species R (rat); data from Lee et al.; cited from earlier work.
The target in the next experiment is T15, human A2A receptors (Homo sapiens, UniProt P29274).
T15 construct: expressed in transfected cells
Description: Binding at human A2A receptor, HEK-293 membranes (Example 4). As to conditions: read-out: Affinity (Ki nM) A2A.

The target of a further experiment is T16, human A1 receptors (Homo sapiens, UniProt P30542).
T16 construct: expressed in transfected cells; host or cells: CHO
T16 sequence (P30542 1-326): T4 sequence (P30542 1-326)
Description: Binding at human A1 receptor, CHO membranes (Example 4). As to conditions: read-out: Affinity (Ki nM) A1.

The next experiment deals with T17, human A3 receptor (Homo sapiens, UniProt P0DMS8).
T17 sequence (P0DMS8 1-318): T2 sequence (P0DMS8 1-318)
Description: Binding assay at the human A3 receptor, CHO membranes (Example 4).

Experiment [10] has as its target T3, human A2A adenosine receptor. The arrangement: expressed in transfected cells. Particulars: species H (human); data from Tchilibon et al. or Kim et al.; cited from earlier work.
Experiment [11] deals with T7, human A1 adenosine receptor. Further details: expressed in transfected cells; host or cells: CHO. As to conditions: species H (human); data from Tchilibon et al. or Kim et al.; cited from earlier work.
For experiment [12], the target named is T13, rat A3 AR. As to conditions: species R (rat); data from Tchilibon et al. / Lee et al.; cited from earlier work.
The target in experiment [13] is T5, human A3 adenosine receptor. Further details: expressed in transfected cells; host or cells: CHO. Particulars: species H (human); data from Tchilibon et al. or Kim et al.; cited from earlier work.

Changes are numbered by the printed parent chain. Where two headings read alike, the source gives them in different places. Marks after values point to notes of the source that are not given here.

T3 sequence (P29274 whole entry): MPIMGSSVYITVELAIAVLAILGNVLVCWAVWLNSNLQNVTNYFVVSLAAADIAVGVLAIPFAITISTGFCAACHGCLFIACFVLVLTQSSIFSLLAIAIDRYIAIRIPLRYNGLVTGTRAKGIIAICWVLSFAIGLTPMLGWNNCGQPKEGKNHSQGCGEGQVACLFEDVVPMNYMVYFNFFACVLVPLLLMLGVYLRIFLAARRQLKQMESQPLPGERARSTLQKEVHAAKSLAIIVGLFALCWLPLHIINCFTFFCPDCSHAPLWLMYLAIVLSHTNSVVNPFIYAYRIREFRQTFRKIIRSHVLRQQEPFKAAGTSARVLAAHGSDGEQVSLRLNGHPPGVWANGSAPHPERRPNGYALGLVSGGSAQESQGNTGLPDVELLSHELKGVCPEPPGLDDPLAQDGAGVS
Chain of mouse A2A adenosine receptor (Q60613 whole entry): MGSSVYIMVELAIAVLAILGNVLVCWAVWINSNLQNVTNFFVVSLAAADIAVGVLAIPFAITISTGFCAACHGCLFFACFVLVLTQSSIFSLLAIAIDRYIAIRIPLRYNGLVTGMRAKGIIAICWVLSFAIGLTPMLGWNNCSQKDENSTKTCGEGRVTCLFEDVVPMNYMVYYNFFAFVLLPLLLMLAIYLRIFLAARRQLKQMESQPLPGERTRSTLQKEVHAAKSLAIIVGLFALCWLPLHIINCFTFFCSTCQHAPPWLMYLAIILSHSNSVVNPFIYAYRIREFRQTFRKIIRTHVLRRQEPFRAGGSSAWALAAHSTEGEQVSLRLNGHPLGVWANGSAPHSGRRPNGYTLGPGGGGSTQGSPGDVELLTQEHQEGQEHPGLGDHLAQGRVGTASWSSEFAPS
T1 sequence (P29274 whole entry): as the sequence (P29274 whole entry) above
T15 sequence (P29274 whole entry): as above
T12 sequence (Q60613 whole entry): as the sequence (Q60613 whole entry) above
Chain of rat A2A AR (P30543 whole entry): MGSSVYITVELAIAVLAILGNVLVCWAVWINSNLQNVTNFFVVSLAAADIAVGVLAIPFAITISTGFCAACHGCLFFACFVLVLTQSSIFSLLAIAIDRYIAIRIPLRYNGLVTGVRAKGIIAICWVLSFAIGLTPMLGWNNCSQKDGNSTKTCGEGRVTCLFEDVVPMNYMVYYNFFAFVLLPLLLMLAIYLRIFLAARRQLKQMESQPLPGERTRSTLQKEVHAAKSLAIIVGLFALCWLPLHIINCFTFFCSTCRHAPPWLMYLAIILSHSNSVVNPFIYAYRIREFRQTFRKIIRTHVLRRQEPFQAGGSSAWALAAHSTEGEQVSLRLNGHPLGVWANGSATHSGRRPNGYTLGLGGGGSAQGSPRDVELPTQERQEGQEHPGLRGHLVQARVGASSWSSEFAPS
Description for human A1 receptors: (§1) The reaction was terminated by filtration with GF/B filters.
Description for human A2A receptors: as §1
Description for human A3 receptor: Cell culture and membrane preparation: CHO (Chinese hamster ovary) cells expressing the recombinant human A3AR were cultured in DMEM (Dulbecco's modified Eagle's medium) supplemented with 10% fetal bovine serum, 100 units/mL penicillin, 100 μg/mL streptomycin, 2 μmol/mL glutamine and 800 μg/mL geneticin. The CHO cells expressing rat A3ARs were cultured in DMEM and F12 (1:1). Cells were harvested by trypsinization. After homogenization and suspension, cell membranes were centrifuged at 500 g for 10 min, and the pellet was re-suspended in 50 mM Tris.HCl buffer (pH 8.0) containing 10 mM MgCl2, 1 mM EDTA and 0.1 mg/mL CHAPS (3[(3-cholamidopropyl)dimethylammonio]-propanesulfonic acid). […] The protein concentration was measured using the Bradford assay.
The mixtures were incubated at 37° C. for 60 min. Binding reactions were terminated by filtration through Whatman GF/B filters under reduced pressure using a MT-24 cell harvester (Brandell, Gaithersburgh, Md., USA). Filters were washed three times with 9 mL ice-cold buffer. Radioactivity was determined in a Beckman 5500B γ-counter.

In the case of `CNC(=O)[C@@]12C[C@@H]1[C@@H](n1cnc3c(NCc4cccc(I)c4)ncnc31)[C@H](O)[C@@H]2O` [Compound 31], the Ki is 6200 ± 100 nM on hA2AAR; 6200 ± 100 nM in experiment [1]; 700 ± 270 nM on hA1AR; 2.4 ± 0.5 nM in experiment [2] (read-out: A3 Ki, species H (human)); 2.4 ± 0.5 nM at hA3AR [4]; 700 ± 270 nM in experiment [5]. Moreover, the “% Efficacy at the human A3 AR” value on human A3AR is listed as 100^j %. Besides, in experiment [2] (human), the “Selectivity A1/A3” value was “up to 1900”. For the same compound, the “% Efficacy hA3” value at hA3AR [3] is on record as 100%.
Take `CNC(=O)[C@@]12C[C@@H]1[C@@H](n1cnc3c(NCc4cccc(I)c4)nc(Cl)nc31)[C@H](O)[C@@H]2O` [Compound 15]: the Ki on hA2AAR is 784 ± 97 nM; in experiment [6], 7.32 ± 1.5 nM; at mA3AR, 0.8 ± 0.14 nM; in [1] it was 784 ± 97 nM; on hA1AR, 136 ± 22 nM; at mA1AR, 7.32 ± 1.5 nM. Further, the Ki on rat A1 AR was 83.9 nM; at mA2AAR, 5350 nM; in experiment [7], 5350 ± 860 nM; at rat A3 AR [8] it was 1.1 nM; in [9], 0.8 ± 0.14 nM; in [5], 136 ± 22 nM. Also, the inhibitory constant (Ki) at rat A2A AR was 1660 nM. For the same compound, on hA3AR [3], the “% Efficacy hA3” value was 100%.
For the compound `OC1C(O)C(n2cnc3c(NC4CC4c4ccccc4)nc(Cl)nc32)C2CC12` (stereo not drawn) [Compound 113b, (1′R,2′R,3′S, 4′R,5′S)-4′-[2-Chloro-6-(trans-2-phenylcyclopropylamino)purine]-2′,3′-O-dihydroxybicyclo-[3.1.0]hexane], the inhibition constant (Ki) on human A2A receptors is 2010 nM; at human A1 receptors it was 1790 nM. For the same compound, the “binding to the A3AR (in words)” value at human A3 receptor is “nanomolar binding affinity”.
With `COc1ccc(OC)c(CNc2nc(Cl)nc3c2ncn3C2C(O)C(O)C3CC32)c1` (stereo not drawn) [Compound 111b, (1′R,2′R,3′S, 4′R,5′S)-4′-[2-Chloro-6-(2,5-dimethoxybenzylamino)purine]-2′,3′-O-dihydroxybicyclo-[3.1.0]hexane], the Ki on human A1 receptors came to 3000 nM.
`OC1C(O)C(n2cnc3c(NCc4cccc(Br)c4)nc(Cl)nc32)C2CC12` (stereo not drawn) [Compound 109b, (1′R,2′R,3′S, 4′R,5′S)-4′42-Chloro-6-(3-bromobenzylamino)purine-1-2′,3′-O-dihydroxybicyclo-[3.1.0]hexane]: the inhibition constant (Ki) on human A2A receptors came to 1600 nM.
Consider `CNC(=O)[C@@]12C[C@@H]1[C@@H](n1cnc3c(NCc4cccc(Br)c4)nc(Cl)nc31)[C@H](O)[C@@H]2O` [Compound 14], for which the Ki in experiment [6] was 8.79 ± 0.12 nM; in [10] it was 1300 nM; in experiment [7] it was 6390 ± 870 nM; on rat A3 AR [8] it was 0.76 nM; in experiment [11], 270 nM; in experiment [9], 0.9 ± 0.22 nM. The “Selectivity A1/A3” value in [9] worked out at 9.8.
Take `CNC(=O)[C@@]12C[C@@H]1[C@@H](n1cnc3c(NCc4cc(OC)ccc4OC)nc(Cl)nc31)[C@H](O)[C@@H]2O` [Compound 17]: the Ki in [6] was 29 ± 3.3 nM; at rat A3 AR [12], 0.87 nM; in experiment [10], 10000 nM; in experiment [7], 44700 ± 5700 nM; in [11], 1600 nM; in experiment [9] it was 1.72 ± 0.04 nM. Besides, the Ki in experiment [13] is 1.4 nM. In addition, the “Selectivity A1/A3” value in experiment [9] stood at 17.

Values taken from US8916570B2 (The United States of America, as represented by the …, priority 2008, dated 2014).
